We go through nine molecules from ChEMBL document CHEMBL6109067, “Isolation, synthesis and structure-activity relationships of gallotannin derivatives as cathepsin C inhibitor” (Bioorg Med Chem Lett, 2025).

The target of assay [1] is Dipeptidyl peptidase 1 (Homo sapiens, UniProt P53634). As to the kind of experiment: Inhibition of Cathepsin C (unknown origin).
For assay [2], the target named is T1, Cathepsin K (Homo sapiens, UniProt P43235).
T1 sequence (P43235 whole entry): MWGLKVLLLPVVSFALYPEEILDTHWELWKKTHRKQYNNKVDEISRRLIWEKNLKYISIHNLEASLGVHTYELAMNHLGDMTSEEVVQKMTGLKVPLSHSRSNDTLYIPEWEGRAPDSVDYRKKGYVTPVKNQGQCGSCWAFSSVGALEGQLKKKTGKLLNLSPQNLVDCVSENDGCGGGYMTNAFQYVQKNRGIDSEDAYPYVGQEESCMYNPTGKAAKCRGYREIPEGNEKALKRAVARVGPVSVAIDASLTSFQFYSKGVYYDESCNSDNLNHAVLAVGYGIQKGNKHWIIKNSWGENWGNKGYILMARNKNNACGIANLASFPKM
As to the kind of experiment: Inhibition of Cathepsin K (unknown origin).

Assay [3] addresses Procathepsin L (Homo sapiens, UniProt P07711). As to the kind of experiment: Inhibition of Cathepsin L (unknown origin).
Assay [4] deals with Cathepsin S (Homo sapiens, UniProt P25774). As to the kind of experiment: Inhibition of Cathepsin S (unknown origin).

The IC50 is the concentration needed to halve the response being measured. The low end stands for greater potency in that assay, the high end for weaker potency in that assay. As a reminder, the pIC50 is the IC50 on a negative log10 scale, so that one unit is a factor of ten.

Chain of Procathepsin L (P07711 whole entry): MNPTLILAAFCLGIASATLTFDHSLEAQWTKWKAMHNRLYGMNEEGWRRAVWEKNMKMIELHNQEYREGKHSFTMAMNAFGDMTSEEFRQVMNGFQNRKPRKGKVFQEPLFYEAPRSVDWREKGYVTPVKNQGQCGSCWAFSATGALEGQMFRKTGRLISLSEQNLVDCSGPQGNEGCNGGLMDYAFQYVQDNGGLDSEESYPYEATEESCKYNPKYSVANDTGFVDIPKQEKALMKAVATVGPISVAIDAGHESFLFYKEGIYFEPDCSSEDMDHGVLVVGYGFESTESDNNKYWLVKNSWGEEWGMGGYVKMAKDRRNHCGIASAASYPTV
Chain of Dipeptidyl peptidase 1 (P53634 25-134 limits assumed): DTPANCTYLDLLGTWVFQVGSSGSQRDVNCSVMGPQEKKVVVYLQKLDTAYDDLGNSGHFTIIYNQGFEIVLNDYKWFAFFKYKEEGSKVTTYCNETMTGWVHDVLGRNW
Chain of Dipeptidyl peptidase 1 (P53634 231-394 limits assumed): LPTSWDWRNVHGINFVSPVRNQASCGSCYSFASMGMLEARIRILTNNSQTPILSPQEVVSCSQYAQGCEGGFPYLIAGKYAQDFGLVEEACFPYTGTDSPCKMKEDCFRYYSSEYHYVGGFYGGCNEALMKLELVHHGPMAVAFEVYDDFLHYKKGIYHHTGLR
Chain of Dipeptidyl peptidase 1 (P53634 395-463 limits assumed): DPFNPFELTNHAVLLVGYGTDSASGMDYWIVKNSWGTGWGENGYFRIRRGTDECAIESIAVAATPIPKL
Chain of Cathepsin S (P25774 whole entry): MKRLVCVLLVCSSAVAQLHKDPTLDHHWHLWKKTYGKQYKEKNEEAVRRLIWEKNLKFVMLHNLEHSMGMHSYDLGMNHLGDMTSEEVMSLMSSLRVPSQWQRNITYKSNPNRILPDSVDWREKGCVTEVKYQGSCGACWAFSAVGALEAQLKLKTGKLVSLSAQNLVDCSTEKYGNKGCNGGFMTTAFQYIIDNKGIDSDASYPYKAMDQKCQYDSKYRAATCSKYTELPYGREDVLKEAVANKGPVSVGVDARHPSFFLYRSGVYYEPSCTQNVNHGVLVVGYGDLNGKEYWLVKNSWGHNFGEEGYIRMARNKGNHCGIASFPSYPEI

Turning to `O=C(OC[C@H]1O[C@H](OC(=O)c2cc(O)c(O)c(O)c2)[C@H](OC(=O)c2cc(O)c(O)c(O)c2)[C@@H](OC(=O)c2cc(O)c(O)c(O)c2)[C@@H]1OC(=O)c1cc(O)c(O)c(O)c1)c1cc(O)c(O)c(O)c1`, in assay [1], half-maximal inhibition (IC50) required 1990 nM.

`O=C(OC[C@H]1O[C@@H](OC(=O)c2cc(O)c(O)c(O)c2)[C@H](OC(=O)c2cc(O)c(O)c(O)c2)[C@@H](OC(=O)c2cc(O)c(O)c(O)c2)[C@H]1OC(=O)c1cc(O)c(O)c(O)c1)c1cc(O)c(O)c(O)c1`: the half-maximal inhibitory concentration (IC50) in assay [1] turned out to be 735 nM.

Consider `O=C(OC[C@H]1O[C@H](OC(=O)c2cc(O)c(O)c(O)c2)[C@H](OC(=O)c2cc(O)c(O)c(O)c2)[C@@H](OC(=O)c2cc(O)c(O)c(O)c2)[C@H]1OC(=O)c1cc(O)c(O)c(O)c1)c1cc(O)c(O)c(O)c1`, for which the IC50 in assay [1] is 2520 nM.

Take `O=C(OC[C@H]1O[C@@H](OC(=O)c2cc(O)c(O)c(O)c2)[C@H](OC(=O)c2cc(O)c(O)c(O)c2)[C@@H](OC(=O)c2cc(O)c(O)c(O)c2)[C@@H]1O)c1cc(O)c(O)c(O)c1`: the IC50 in assay [2], in assay [3] and in assay [4] was more than 50000 nM each time.

Turning to `COc1cc(C(=O)O[C@@H]2O[C@H](CO)[C@@H](O)[C@H](OC(=O)c3cc(OC)c(OC)c(OC)c3)[C@H]2OC(=O)c2cc(OC)c(OC)c(OC)c2)cc(OC)c1OC`, in assay [1], the IC50 was more than 10000 nM and the pIC50 is reported as less than 5.

For `O=C(OC[C@H]1O[C@@H](OC(=O)c2cc(O)c(O)c(O)c2)[C@H](OC(=O)c2cc(O)c(O)c(O)c2)[C@@H](OC(=O)c2cc(O)c(O)c(O)c2)[C@@H]1F)c1cc(O)c(O)c(O)c1`, the results for the IC50 in assay [2], in assay [3] and in assay [4] were more than 50000 nM, 7230 nM and more than 50000 nM, respectively.

In assay [1], `O=C(N[C@H]1[C@@H](OC(=O)c2cc(O)c(O)c(O)c2)O[C@H](COC(=O)c2cc(O)c(O)c(O)c2)[C@@H](O)[C@@H]1OC(=O)c1cc(O)c(O)c(O)c1)c1cc(O)c(O)c(O)c1` came in with a 50% inhibitory concentration (IC50) of more than 10000 nM and a negative logarithm of the IC50 (pIC50) of less than 5.

Turning to `CC(C)C[C@H](NC(=O)[C@H]1O[C@@H]1C(=O)O)C(=O)NCCCCN=C(N)N` [E-64], the half-inhibitory concentration (IC50) in assay [2] was 1.17 nM; in assay [1], 4450 nM; in assay [3], 7.49 nM; in assay [4], 3.58 nM.

As to `O=C(OC[C@H]1O[C@@H](OC(=O)c2cc(O)c(O)c(O)c2)[C@H](OC(=O)c2cc(O)c(O)c(O)c2)[C@@H](OC(=O)c2cc(O)c(O)c(O)c2)[C@@H]1OC(=O)c1cc(O)c(O)c(O)c1)c1cc(O)c(O)c(O)c1` [PENTAGALLOYL GLUCOSE], the IC50 in assay [1] was 695 nM.
